Legend:
Format in all cases: in vivo
[1] = test system: Lucilia cuprina; test: Lucilia cuprina test; conditions: application rate 100 ppm; L1 larvae; after 2 days
Experimental: (§1) Solvent: dimethyl sulphoxide
(§2) To produce an appropriate active ingredient formulation, 10 mg of active ingredient are mixed with 0.5 ml of dimethyl sulphoxide, and the concentrate is diluted with water to the desired concentration.
About 20 L1 larvae of the Australian sheep blowfly (Lucilia cuprina) are transferred into a test vessel containing minced horsemeat and the active ingredient preparation of the desired concentration.
After 2 days, the kill in % is determined. 100% means that all the larvae have been killed and 0% means that none of the larvae have been killed.

[2] = test system: Musca domestica; test: Musca domestica test; conditions: application rate 100 ppm; adult houseflies; after 2 days
Experimental: as §1, §2
Vessels containing a sponge treated with sugar solution and the active ingredient formulation of the desired concentration are populated with 10 adult houseflies (Musca domestica).
After 2 days, the kill in % is determined. 100% means that all of the flies have been killed; 0% means that none of the flies have been killed.

[3] = test system: Boophilus microplus; test: Boophilus microplus injection test; conditions: application rate 20 μg/animal; injection into abdomen; assessed after 7 days
Experimental: Boophilus microplus—Injection Test
as §1
To produce an appropriate active ingredient formulation, 10 mg of active ingredient are mixed with 0.5 ml of solvent and the concentrate is diluted with solvent to the desired concentration.
1 μl of the active ingredient solution is injected into the abdomen of 5 engorged adult female cattle ticks (Boophilus microplus). The animals are transferred into dishes and kept in a climate-controlled room.
Efficacy is assessed after 7 days by laying of fertile eggs. Eggs which are not visibly fertile are stored in a climate-controlled cabinet until the larvae hatch after about 42 days. An efficacy of 100% means that none of the ticks has laid any fertile eggs; 0% means that all the eggs are fertile.

[4] = test system: Ctenocephalides felis; test: Ctenocephalides felis oral test; conditions: application rate 100 ppm in citrated cattle blood; after 2 days
Experimental: Ctenocephalides felis—Oral Test
as §1
For the purpose of producing an appropriate active ingredient formulation, 10 mg of active ingredient are mixed with 0.5 ml of dimethyl sulphoxide. Dilution with citrated cattle blood gives the desired concentration.
About 20 unfed adult cat fleas (Ctenocephalides felis) are placed into a chamber which is closed at the top and bottom with gauze. A metal cylinder whose bottom end is closed with parafilm is placed onto the chamber. The cylinder contains the blood/active ingredient preparation, which can be imbibed by the fleas through the parafilm membrane.
After 2 days, the kill in % is determined. 100% means that all of the fleas have been killed; 0% means that none of the fleas have been killed.

[5] = test system: Rhipicephalus sanguineus; test: Rhipicephalus sanguineus in vitro contact test with adult brown dog ticks; conditions: after 48 h, ticks dead or moribund
Experimental: Rhipicephalus sanguineus—In Vitro Contact Tests with Adult Brown Dog Ticks
(§3) For the coating of the test tubes, 9 mg of active ingredient are first dissolved in 1 ml of acetone p.a. and then diluted to the desired concentration with acetone p.a. 250 μl of the solution are distributed homogeneously on the inner walls and base of a 25 ml test tube by turning and rocking on an orbital shaker (rocking rotation at 30 rpm for 2 h). With 900 ppm active ingredient solution and internal surface 44.7 cm^2, given homogeneous distribution, an area-based dose of 5 μg/cm^2 is achieved.
After the solvent has evaporated off, the tubes are populated with 5-10 adult dog ticks (Rhipicephalus sanguineus), sealed with a perforated plastic lid and incubated in a horizontal position in the dark at room temperature and ambient humidity. After 48 h, efficacy is determined. To this end, the ticks are knocked to the floor of the tube and incubated on a hotplate at 45-50° C. for not more than 5 min. Ticks which remain motionless on the floor or move in such an uncoordinated manner that they are unable to deliberately avoid the heat by climbing upwards are considered to be dead or moribund.
An efficacy of 100% means that all the ticks were dead or moribund. 0% efficacy means that none of the ticks had been harmed.

[6] = test system: Ctenocephalides felis; test: Ctenocephalides felis in vitro contact test with adult cat fleas; conditions: application rate 5 μg/cm^2 (500 g/ha); after 48 h; fleas dead or moribund
Experimental: Ctenocephalides felis—In Vitro Contact Tests with Adult Cat Fleas
as §3
After the solvent has evaporated off, the tubes are populated with 5-10 adult cat fleas (Ctenocephalides felis), sealed with a perforated plastic lid and incubated in a horizontal position at room temperature and ambient humidity. After 48 h, efficacy is determined. To this end, the test tubes are stood upright and the fleas are knocked to the base of the tube. Fleas which remain motionless at the base or move in an uncoordinated manner are considered to be dead or moribund.
100% efficacy means that all the fleas were dead or moribund. 0% efficacy means that no fleas were harmed.

[7] = test system: Phaedon cochleariae; test: Phaedon cochleariae spray test; conditions: application rate 100 g/ha; larvae; after 7 days
Experimental: Phaedon cochleariae—Spray Test
(§4) To produce an appropriate active ingredient formulation, 1 part by weight of active ingredient is dissolved using the specified parts by weight of solvent and made up with water containing an emulsifier concentration of 1000 ppm until the desired concentration is attained. To produce further test concentrations, the preparation is diluted with emulsifier-containing water.
Discs of Chinese cabbage leaves (Brassica pekinensis) are sprayed with an active ingredient formulation of the desired concentration and, after drying, populated with larvae of the mustard beetle (Phaedon cochleariae).
After 7 days, efficacy in % is determined. 100% means that all the beetle larvae have been killed; 0% means that no beetle larvae have been killed.

[8] = test system: Tetranychus urticae; test: Tetranychus urticae spray test, OP-resistant; conditions: application rate 100 g/ha; after 6 days
Experimental: Tetranychus urticae—Spray Test, OP-Resistant
as §4
Discs of bean leaves (Phaseolus vulgaris) infested by all stages of the greenhouse red spider mite (Tetranychus urticae) are sprayed with an active ingredient formulation of the desired concentration.
After 6 days, efficacy in % is determined. 100% means that all the spider mites have been killed; 0% means that none of the spider mites have been killed.

[9] = test system: Spodoptera frugiperda; test: Spodoptera frugiperda spray test; conditions: application rate 100 g/ha; caterpillars; after 7 days
Experimental: Spodoptera frugiperda—Spray Test
as §4
Leaf discs of maize (Zea mays) are sprayed with an active ingredient formulation of the desired concentration and, after drying, populated with caterpillars of the armyworm (Spodoptera frugiperda).
After 7 days, efficacy in % is determined. 100% means that all the caterpillars have been killed; 0% means that no caterpillars have been killed.

[10] = application rate 5 μg/cm^2 (500 g/ha)

Cn1nc(C(F)(F)C(F)(F)F)c(C(F)(F)F)c1-n1cc(-c2ccc(F)c(NC(=O)C(C)(C)c3cccc(Cl)c3)c2)cn1 [Example 1-119]
efficacy (kill in %) [1]: 100%
efficacy (kill in %) [2]: 80%
efficacy (laying of fertile eggs) [3]: 100%

C[C@@H](F)C(=O)Nc1cc(-c2cnn(-c3c(C(F)(F)F)c(C(F)(F)C(F)(F)F)nn3C)c2)ccc1F [Example 1-066]
efficacy (kill in %) [4]: 100%
efficacy [5, 10]: 100%
efficacy [6]: 100%
efficacy (kill in %) [1]: 80%
efficacy (laying of fertile eggs) [3]: 100%

Cn1nc(C(F)(F)C(F)(F)F)c(C(F)(F)F)c1-n1cc(-c2cccc(NC(=O)c3c(F)cccc3F)c2)cn1 [Example 1-015]
efficacy (kill in %) [4]: 100%
efficacy [5, 10]: 80%
efficacy (kill in %) [1]: 100%
efficacy [7]: 100%
efficacy (laying of fertile eggs) [3]: 100%
efficacy [8]: 100%
efficacy [9]: 100%

Cn1nc(C(F)(F)C(F)(F)F)c(C(F)(F)F)c1-n1cc(-c2ccc(F)c(NC(=O)Cc3ccc(F)cc3Cl)c2)cn1 [Example 1-126]
efficacy (kill in %) [4]: 100%
efficacy (kill in %) [1]: 100%
efficacy (kill in %) [2]: 90%
efficacy [7]: 100%
efficacy (laying of fertile eggs) [3]: 100%

Cn1nc(C(F)(F)C(F)(F)F)c(C(F)(F)F)c1-n1cc(-c2ccc(F)c(NC(=O)c3cccnc3)c2)cn1 [Example 1-085]
efficacy (kill in %) [4]: 100%
efficacy [5, 10]: 100%
efficacy [6]: 100%
efficacy (kill in %) [1]: 100%
efficacy [7]: 100%
efficacy (laying of fertile eggs) [3]: 100%
efficacy [8]: 100%
efficacy [9]: 83%

Cn1nc(C(F)(F)C(F)(F)F)c(C(F)(F)F)c1-n1cc(-c2ccc(F)c(NC(=O)C3(Cl)CC3)c2)cn1 [Example 1-032]
efficacy (kill in %) [4]: 100%
efficacy [5, 10]: 100%
efficacy (kill in %) [1]: 100%
efficacy (kill in %) [2]: 80%
efficacy (laying of fertile eggs) [3]: 100%

COc1ccc(C(=O)Nc2cc(-c3cnn(-c4c(C(F)(F)F)c(C(F)(F)C(F)(F)F)nn4C)c3)ccc2F)cc1F [Example 1-095]
efficacy (kill in %) [4]: 100%
efficacy [5, 10]: 100%
efficacy [6]: 100%
efficacy (kill in %) [1]: 100%
efficacy [7]: 100%
efficacy (laying of fertile eggs) [3]: 100%
efficacy [8]: 100%
efficacy [9]: 100%

Cc1ccc(C(=O)Nc2cc(-c3cnn(-c4c(C(F)(F)F)c(C(F)(F)C(F)(F)F)nn4C)c3)ccc2F)cc1F [Example 1-092]
efficacy (kill in %) [4]: 100%
efficacy [5, 10]: 100%
efficacy (kill in %) [1]: 100%
efficacy [7]: 100%
efficacy (laying of fertile eggs) [3]: 100%
efficacy [8]: 100%
efficacy [9]: 100%

COc1cc(C(=O)Nc2cc(-c3cnn(-c4c(C(F)(F)F)c(C(F)(F)C(F)(F)F)nn4C)c3)ccc2F)ccc1C [Example 1-097]
efficacy (kill in %) [4]: 100%
efficacy [5, 10]: 100%
efficacy [6]: 100%
efficacy (kill in %) [1]: 100%
efficacy [7]: 100%
efficacy (laying of fertile eggs) [3]: 100%
efficacy [8]: 100%
efficacy [9]: 100%

Cc1ccc(C(=O)Nc2cc(-c3cnn(-c4c(C(F)(F)F)c(C(F)(F)C(F)(F)F)nn4C)c3)ccc2F)s1 [Example 1-069]
efficacy (kill in %) [4]: 100%
efficacy [5, 10]: 100%
efficacy [6]: 100%
efficacy (kill in %) [1]: 100%
efficacy [7]: 100%
efficacy (laying of fertile eggs) [3]: 100%
efficacy [8]: 90%
efficacy [9]: 100%

Cn1nc(C(F)(F)C(F)(F)F)c(C(F)(F)F)c1-n1cc(-c2ccc(F)c(NC(=O)c3cccc(C#N)c3)c2)cn1 [Example 1-075]
efficacy (kill in %) [4]: 100%
efficacy [5, 10]: 100%
efficacy (kill in %) [1]: 100%
efficacy (kill in %) [2]: 100%
efficacy (laying of fertile eggs) [3]: 100%

Cc1cc(C(=O)Nc2cc(-c3cnn(-c4c(C(F)(F)F)c(C(F)(F)C(F)(F)F)nn4C)c3)ccc2F)cc(Cl)n1 [Example 1-043]
efficacy (kill in %) [4]: 100%
efficacy ([5]; application rate 1 μg/cm^2 (100 g/ha)): 80%
efficacy (kill in %) [1]: 100%
efficacy [7]: 100%
efficacy (laying of fertile eggs) [3]: 100%
efficacy [8]: 100%
efficacy [9]: 100%

Cc1ccc2c(Cl)c(C(=O)Nc3cc(-c4cnn(-c5c(C(F)(F)F)c(C(F)(F)C(F)(F)F)nn5C)c4)ccc3F)sc2c1 [Example 1-083]
efficacy [6]: 80%
efficacy (laying of fertile eggs) [3]: 80%

Cn1nc(C(F)(F)C(F)(F)F)c(C(F)(F)F)c1-n1cc(-c2ccc(Cl)c(NC(=O)c3ccccc3)c2)cn1 [Example 1-023]
efficacy (kill in %) [4]: 100%
efficacy [5, 10]: 100%
efficacy [6]: 100%
efficacy (kill in %) [1]: 100%
efficacy [7]: 100%
efficacy (laying of fertile eggs) [3]: 100%
efficacy [8]: 100%
efficacy [9]: 100%

Cn1nc(C(F)(F)C(F)(F)F)c(C(F)(F)F)c1-n1cc(-c2ccc(F)c(NC(=O)C3CCCC3)c2)cn1 [Example 1-077]
efficacy (kill in %) [4]: 100%
efficacy [5, 10]: 100%
efficacy (kill in %) [1]: 100%
efficacy (kill in %) [2]: 100%
efficacy (laying of fertile eggs) [3]: 100%

Cn1nc(C(F)(F)C(F)(F)F)c(C(F)(F)F)c1-n1cc(-c2ccc(F)c(NC(=O)c3ccc4c(c3)OCO4)c2)cn1 [Example 1-093]
efficacy (kill in %) [4]: 100%
efficacy [5, 10]: 100%
efficacy (kill in %) [1]: 100%
efficacy [7]: 100%
efficacy (laying of fertile eggs) [3]: 100%
efficacy [8]: 100%
efficacy [9]: 100%

Cn1nc(C(F)(F)C(F)(F)F)c(C(F)(F)F)c1-n1cc(-c2ccc(F)c(NC(=O)c3ccc(F)cc3)c2F)cn1 [Example 1-039]
efficacy [6]: 80%
efficacy [7]: 100%
efficacy [8]: 100%
efficacy [9]: 100%

Cc1cc(C(=O)Nc2cc(-c3cnn(-c4c(C(F)(F)F)c(C(F)(F)C(F)(F)F)nn4C)c3)ccc2F)ccc1F [Example 1-091]
efficacy (kill in %) [4]: 100%
efficacy [5, 10]: 100%
efficacy [6]: 100%
efficacy (kill in %) [1]: 100%
efficacy [7]: 100%
efficacy (laying of fertile eggs) [3]: 100%
efficacy [8]: 100%
efficacy [9]: 100%
